Tests used:
Plasma stability = assay type: in vitro ADME, beagle dog; details: dog plasma, with or without EHNA
Procedure: Plasma samples (10 mL of human, beagle dog, mouse, or rats from Sera laboratories, U.K.) were treated with and without 1 μM of EHNA, after which 20 μM concentration of each drug (3′dA and ProTides) was added and incubated for 2 h at 37 °C with 5% CO2. After incubation, 100 μL of each sample was taken and 300 μL of 100% methanol was added and left on ice for 30 min. After 30 min, the mixture was centrifuged (14 000 rpm, 4 °C, 10 min), and the supernatant was transferred to new tubes and evaporated under SpeedVac. Then, the dried extract was reconstituted in 100 μL of 10% acetonitrile, then transferred to LC-MS vials, and 10 μL was injected into the UPLC-MS/MS system.

[1] = target: T1, adenosine deaminase (ADA) (Bos taurus, UniProt P56658); experiment: Adenosine deaminase assay (UV); assay type: in vitro ADME, Bovine; details: 62.5 μM
T1 construct: purchased Sigma-Aldrich 59722
T1 sequence (P56658 1-363): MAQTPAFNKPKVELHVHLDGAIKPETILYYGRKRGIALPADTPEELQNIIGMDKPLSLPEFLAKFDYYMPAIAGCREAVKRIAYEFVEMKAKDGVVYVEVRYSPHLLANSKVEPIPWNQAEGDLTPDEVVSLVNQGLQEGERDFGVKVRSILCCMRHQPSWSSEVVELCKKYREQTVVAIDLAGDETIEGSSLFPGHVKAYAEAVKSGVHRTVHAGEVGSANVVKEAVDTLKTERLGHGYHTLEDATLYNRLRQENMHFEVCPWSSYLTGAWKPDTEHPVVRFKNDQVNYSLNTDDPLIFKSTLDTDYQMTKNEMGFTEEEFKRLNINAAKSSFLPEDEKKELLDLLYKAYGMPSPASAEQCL
Procedure: Bovine recombinant adenosine deaminase (ADA, EC:3.5.4.4) was purchased from Sigma (Sigma-Aldrich, product number 59722). The ADA suspension (containing >2 U/mL) was aliquoted into 55 μL portions and kept at −20 °C. Before use, a 55 μL sample was thawed and 1 mL of phosphate buffer (0.1 N, pH 7.4) was added. The suspension was filtered through a 0.2 μm filter to remove precipitates that could interfere with the absorbance measurements. The clear supernatant was used for the degradation experiments. The experiments were conducted in UV transparent cuvettes (Sigma-Aldrich, code: Z637092) using an Envision microplate reader (PerkinElmer). […] Scans of the absorption spectrum were taken between 220 and 350 nm with 2 nm resolution every 0.1 min over a period of 10 min to 12 h. One sample containing only ADA was also prepared, and this was subtracted to obtain the spectrum over time for substrates.

carboxypeptidase Y = target: T2, carboxypeptidase Y (Saccharomyces cerevisiae, UniProt P00729); experiment: Carboxypeptidase Y assay (31P NMR); assay type: in vitro ADME; details: acetone-d6/Trizma buffer pH 7.6, 31P NMR
T2 construct: purchased Sigma-Aldrich
T2 sequence (P00729 112-532, species assumed): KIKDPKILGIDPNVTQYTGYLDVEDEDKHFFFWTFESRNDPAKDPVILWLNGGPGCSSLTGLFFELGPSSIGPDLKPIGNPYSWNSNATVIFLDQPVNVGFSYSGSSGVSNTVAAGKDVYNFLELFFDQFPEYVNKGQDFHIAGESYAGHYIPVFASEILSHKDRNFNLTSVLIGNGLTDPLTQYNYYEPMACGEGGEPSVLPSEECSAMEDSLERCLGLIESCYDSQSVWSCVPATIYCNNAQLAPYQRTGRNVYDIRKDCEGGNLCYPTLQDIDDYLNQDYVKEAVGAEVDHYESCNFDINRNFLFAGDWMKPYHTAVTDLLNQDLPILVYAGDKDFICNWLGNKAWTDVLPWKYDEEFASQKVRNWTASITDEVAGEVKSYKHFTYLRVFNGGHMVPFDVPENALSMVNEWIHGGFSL
Procedure: ProTides 7a (5 mg, ±0.008 mmol) was dissolved in 150 μL of acetone-d6, and 300 μL of trizma buffer (pH 7.6) was added. A ^31P NMR (202 MHz, 64–128 scans) was conducted at this stage as a reference (blank, t = 0). To this mixture, 130 μL of a stock solution of carboxypeptidase enzyme (purchased from Sigma-Aldrich, >50 unit/mg, dissolved in trizma buffer 7.6 pH to a concentration of 50 units/mL, EC 3.4.16.1) was added. ^31P NMR (128 scans) were carried out with 1 min of delay between experiments for 14 h at 25 °C.

[2] = tested on: advanced solid tumors or lymphoma; set-up: method as in PMID 34497073; details: preliminary findings, phase I/II trial; cited from earlier work

| Compound | stability in plasma (Plasma stability) | time to complete metabolic deamination by ADA ([1]; bovine, pH 7.4) | time to complete conversion into aminoacyl phosphoramidate ester II (carboxypeptidase Y) [h] | anticancer activity [2] | tolerability [2] | UV absorbance spectra in absence and presence of ADA ([1]; ADA from calf, phosphate buffer pH 7.4, 25 °C, 12 h) | shift of the maximum absorption after ADA addition (deamination) ([1]; up to 2 h) |
| --- | --- | --- | --- | --- | --- | --- | --- |
| Nc1ncnc2c1ncn2[C@@H]1O[C@H](CO)C[C@H]1O [3′-dA, 3′-Deoxyadenosine, reference compound] | like those found in human plasma | up to 2 minutes |  |  |  |  |  |
| C[C@H](NP(=O)(OC[C@@H]1C[C@@H](O)[C@H](n2cnc3c(N)ncnc32)O1)Oc1ccccc1)C(=O)OCc1ccccc1 (stereo partly drawn) [Compound 7a, (Rp)- and (Sp)-3′-Deoxyadenosine 5′-O-phenyl-(benzoxy-L-alaninyl)-phosphate] | like those found in human plasma |  | 1 | encouraging signals of anticancer activity | well tolerated | the two lines are superimposed | no shift of the maximum absorption at 265 nm |

Reference: publication PMC9743095 (Journal of Medicinal Chemistry, 2022)
